The subject of experiment [1] is S6 (serine 235 and 236) phosphorylation in AN3CA tumor. The experiment can be described thus: S6 phosphorylation inhibition assay in xenograft. The experiment is classed as in vivo, female nude mouse. The conditions noted are these: Mus musculus, AN3-CA, oral, 6 hr after dosing. The gist of the method: (§1)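 AN3CA human endometrial cancer cells grown as subcutaneous xenografts in female nude mice; compound dosed orally at a set concentration, tumors excised after a set time. Tumor lysates at equal protein were western blotted for p-Akt(T308) and p-S6(S235/236). Inhibition (%) = 100−100×(treated/untreated phospho signal).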

For experiment [2], the system named is Akt (threonine 308) phosphorylation in AN3CA tumor. Put plainly: Akt phosphorylation inhibition assay in xenograft. Conditions: Mus musculus, AN3-CA, oral, 6 hr after dosing. Type of experiment: in vivo, female nude mouse. The essentials:
as §1

Experiment [3] relates to human ovary cancer cell strain IGROV1. The experiment can be described thus: Cell growth inhibition test (MTT), IGROV1. Type of experiment: cell-based. Conditions: IGROV-1, 72 h, IGROV1, 3 days culture, read-out: concentration exhibiting anti-cell effect (GI50). The gist of the method: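 Seed 5000/1000/5000 cells per well (AN3CA/IGROV1/HT29); add compound next day; culture 3 d, 37° C, 5% CO2; MTT 4 h, DMSO, A540. T/C % vs pre-dose baseline; GI50 from bracketing concentrations.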

The target of another experiment is PI3Kα (Homo sapiens, UniProt P42336). Put plainly: PI3K kinase activity inhibition assay. The experiment is classed as biochemical. The conditions noted are these: Kinase-Glo Plus ATP detection, read-out: IC50 against PI3K. The gist of the method:
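PI3Kα (50 nM solution) was reacted with 30 μM ATP and 45 μM PIP2 solutions, each in HEPES pH 7.4 with MgCl2 and DTT, for 2 h at room temperature. Remaining ATP was measured by Kinase-Glo Plus luminescence, and inhibition was derived from ATP consumed. IC50 was taken from curve fitting of the serial dilutions.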
On the technique in general: In Kinase-Glo more light means more ATP remaining.

Consider 19 compounds from patent US8309546B2, “Morpholinopurine derivatives” (Daiichi Sankyo Company, Limited, priority 2008, dated 2012).

Where only a bound is given, the exact number is not on record here.

Sequence of PI3Kα (P42336 whole entry, species assumed): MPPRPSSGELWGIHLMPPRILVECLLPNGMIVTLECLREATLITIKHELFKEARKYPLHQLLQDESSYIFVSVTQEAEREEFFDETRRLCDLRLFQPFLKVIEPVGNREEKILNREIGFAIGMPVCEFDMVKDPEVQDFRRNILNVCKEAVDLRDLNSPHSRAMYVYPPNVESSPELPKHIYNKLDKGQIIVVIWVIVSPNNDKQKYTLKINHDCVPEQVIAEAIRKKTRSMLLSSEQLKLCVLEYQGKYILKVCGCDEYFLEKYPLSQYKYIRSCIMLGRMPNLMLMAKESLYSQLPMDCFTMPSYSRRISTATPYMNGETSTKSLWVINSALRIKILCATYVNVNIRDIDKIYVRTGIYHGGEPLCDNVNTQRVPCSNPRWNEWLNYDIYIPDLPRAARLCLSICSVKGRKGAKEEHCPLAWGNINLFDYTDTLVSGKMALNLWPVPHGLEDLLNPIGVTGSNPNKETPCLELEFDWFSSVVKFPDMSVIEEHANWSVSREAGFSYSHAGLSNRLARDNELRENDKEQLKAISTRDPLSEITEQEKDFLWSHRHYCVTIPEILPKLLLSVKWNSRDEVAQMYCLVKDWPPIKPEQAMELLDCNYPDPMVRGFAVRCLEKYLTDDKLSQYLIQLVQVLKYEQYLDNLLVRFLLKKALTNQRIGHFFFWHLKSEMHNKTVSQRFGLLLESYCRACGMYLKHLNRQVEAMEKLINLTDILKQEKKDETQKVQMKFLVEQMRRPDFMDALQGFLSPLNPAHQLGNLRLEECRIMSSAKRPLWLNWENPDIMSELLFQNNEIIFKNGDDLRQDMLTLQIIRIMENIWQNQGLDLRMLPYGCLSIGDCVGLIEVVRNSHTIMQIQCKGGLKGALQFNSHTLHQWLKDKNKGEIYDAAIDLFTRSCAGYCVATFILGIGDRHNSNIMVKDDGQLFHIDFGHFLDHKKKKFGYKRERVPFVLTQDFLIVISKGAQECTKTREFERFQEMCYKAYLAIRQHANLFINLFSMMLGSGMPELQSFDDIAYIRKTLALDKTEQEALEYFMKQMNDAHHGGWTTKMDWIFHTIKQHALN
Sequence of PI3Kα (P27986 whole entry partner, species assumed): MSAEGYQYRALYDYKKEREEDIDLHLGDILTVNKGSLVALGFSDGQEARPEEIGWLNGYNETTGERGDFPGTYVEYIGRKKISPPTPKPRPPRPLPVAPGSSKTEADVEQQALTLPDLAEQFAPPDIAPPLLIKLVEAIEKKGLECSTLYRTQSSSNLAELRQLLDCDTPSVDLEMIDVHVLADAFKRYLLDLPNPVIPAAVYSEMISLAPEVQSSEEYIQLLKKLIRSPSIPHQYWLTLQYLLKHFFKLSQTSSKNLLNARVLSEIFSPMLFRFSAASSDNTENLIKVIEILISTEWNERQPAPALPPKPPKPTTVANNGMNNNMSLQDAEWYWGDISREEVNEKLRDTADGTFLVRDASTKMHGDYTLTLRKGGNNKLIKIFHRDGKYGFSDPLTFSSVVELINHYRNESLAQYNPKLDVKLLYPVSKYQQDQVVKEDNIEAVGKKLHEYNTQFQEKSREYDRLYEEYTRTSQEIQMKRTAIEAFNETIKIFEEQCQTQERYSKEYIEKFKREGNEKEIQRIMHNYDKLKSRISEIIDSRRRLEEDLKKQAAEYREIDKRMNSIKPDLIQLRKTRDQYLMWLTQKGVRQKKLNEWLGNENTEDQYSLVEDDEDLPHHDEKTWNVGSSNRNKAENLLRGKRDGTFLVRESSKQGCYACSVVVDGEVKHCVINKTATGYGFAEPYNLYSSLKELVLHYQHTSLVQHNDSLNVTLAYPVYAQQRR

By inhibition is commonly meant the relative decrease from the control value, in per cent. As usually defined, the IC50 is the concentration that inhibits the measured activity by half. In the case of `CC(C)Cn1c(N2CCN(C(=O)[C@H](C)O)[C@@H](C)C2)nc2c(N3CCOCC3)nc(-c3cnc(N)nc3)nc21` [Example 104, (2S)-1-{(2S)-4-[2-(2-Aminopyrimidin-5-yl)-9-isobutyl-6-morpholin-4-yl-9H-purin-8-yl]-2-methylpiperazin-1-yl}-1-oxopropan-2-ol], the inhibition at 10 mg/kg in experiment [1] was > 90%; in experiment [2], > 60%. In addition, the GI50 in experiment [3] was ≤ 5 µM. Besides, the IC50 at PI3Kα lay in the range of 10 to 20 nM.
As for `C[C@@H]1CN(c2nc3c(N4CCOCC4)nc(-c4cnc(N)nc4)nc3n2CC(F)(F)F)CCN1C=O` [Example 112, (2R)-4-[2-(2-Aminopyrimidin-5-yl)-6-morpholin-4-yl-9-(2,2,2-trifluoroethyl)-9H-purin-8-yl]-2-methylpiperazine-1-carboaldehyde], the figures for the inhibition at 10 mg/kg in experiment [1] and in experiment [2] were > 90% and > 60%, respectively. For the same compound, the GI50 in experiment [3] was ≤ 5 µM. Further, the IC50 on PI3Kα was < 10 nM.
Take `CC(C)Cn1c(N2CCN(C(=O)C[C@@H](C)O)[C@@H](C)C2)nc2c(N3CCOCC3)nc(-c3cnc(N)nc3)nc21` [Example 83, (2R)-4-{(2S)-4-[2-(2-Aminopyrimidin-5-yl)-9-isobutyl-6-morpholin-4-yl-9H-purin-8-yl]-2-methylpiperazin-1-yl}-4-oxobutan-2-ol]: the figures for the inhibition at 10 mg/kg in experiment [1] and in experiment [2] were > 90% and > 60%, respectively. Also, the GI50 in experiment [3] is ≤ 5 µM. The IC50 on PI3Kα lay in the range of 10 to 20 nM.
In the case of `CC(=O)N1CCN(c2nc3c(N4CCOCC4)nc(-c4cnc(N)nc4)nc3n2CC2CC2)C[C@H]1C` [Example 97, 5-{8-[(3R)-4-Acetyl-3-methylpiperazin-1-yl]-9-(cyclopropylmethyl)-6-morpholin-4-yl-9H-purin-2-yl}pyrimidin-2-amine], the inhibition at 10 mg/kg in experiment [1] was in the range of 70 to 90%; in experiment [2], 30 to 60%. Further, in experiment [3], the GI50 was ≤ 5 µM. Further, the IC50 at PI3Kα was in the range of 10 to 20 nM.
For `CC(C)Cn1c(N2CCN(C(=O)C[C@H](C)O)[C@H](C)C2)nc2c(N3CCOCC3)nc(-c3cnc(N)nc3)nc21` [Example 86, (2S)-4-{(2R)-4-[2-(2-Aminopyrimidin-5-yl)-9-isobutyl-6-morpholin-4-yl-9H-purin-8-yl]-2-methylpiperazin-1-yl}-4-oxobutan-2-ol], the inhibition at 10 mg/kg was > 90% in experiment [1] and > 60% in experiment [2]. The GI50 in experiment [3] was ≤ 5 µM. Besides, the IC50 on PI3Kα was < 10 nM.
As to `CC(=O)N1CCN(c2nc3c(N4CCOCC4)nc(-c4cnc(N)nc4)nc3n2CC(C)C)C[C@@H]1C` [Example 101, 5-{8-[(3S)-4-Acetyl-3-methylpiperazin-1-yl]-9-isobutyl-6-morpholin-4-yl-9H-purin-2-yl}pyrimidin-2-amine], the inhibition at 10 mg/kg is > 90% in experiment [1] and > 60% in experiment [2]. In addition, in experiment [3], the GI50 was ≤ 5 µM. Also, on PI3Kα, the IC50 was in the range of 10 to 20 nM.
Take `CCC(=O)N1CCN(c2nc3c(N4CCOCC4)nc(-c4cnc(N)nc4)nc3n2CC(F)(F)F)CC1` [Example 117, 5-[6-Morpholin-4-yl-8-(4-propionylpiperazin-1-yl)-9-(2,2,2-trifluoroethyl)-9H-purin-2-yl]pyrimidin-2-amine]: the inhibition at 10 mg/kg in experiment [1] fell in the range of 70 to 90%; in experiment [2] it was 30 to 60%. The GI50 in experiment [3] is ≤ 5 µM. Besides, the IC50 at PI3Kα was < 10 nM.
On the same counts, the results for `CC(=O)N1CCN(c2nc3c(N4CCOCC4)nc(-c4cnc(N)nc4)nc3n2CC(F)(F)F)CC12CC2` [Example 119, 5-[8-(4-Acetyl-4,7-diazaspiro[2.5]oct-7-yl)-6-morpholin-4-yl-9-(2,2,2-trifluoroethyl)-9H-purin-2-yl]pyrimidin-2-amine] are > 90%, 30 to 60%, ≤ 5 µM and < 10 nM.
With `CC[C@@H]1CN(c2nc3c(N4CCOCC4)nc(-c4cnc(N)nc4)nc3n2CC(F)(F)F)CCN1C(=O)[C@H](C)O` [Example 79], the inhibition at 10 mg/kg was > 90% in experiment [1] and > 60% in experiment [2]. Moreover, in experiment [3], the GI50 was ≤ 5 µM. Also, the IC50 on PI3Kα is < 10 nM.
On the same counts, the results for `C[C@@H]1CN(c2nc3c(N4CCOCC4)nc(-c4cnc(N)nc4)nc3n2CC(F)(F)F)CCN1S(C)(=O)=O` [Example 61, 5-{8-[(3R)-3-Methyl-4-(methylsulfonyl)piperazin-1-yl]-6-morpholin-4-yl-9-(2,2,2-trifluoroethyl)-9H-purin-2-yl}pyrimidin-2-amine] are > 90%, > 60%, ≤ 5 µM and < 10 nM.
Regarding `CNc1ncc(-c2nc(N3CCOCC3)c3nc(N4CCN(S(C)(=O)=O)[C@H](C)C4)n(CC(F)(F)F)c3n2)cn1` [Example 106, N-Methyl-5-{8-[(3R)-3-methyl-4-(methylsulfonyl)piperazin-1-yl]-6-morpholin-4-yl-9-(2,2,2-trifluoroethyl)-9H-purin-2-yl}pyrimidin-2-amine], the inhibition at 10 mg/kg in experiment [1] is > 90%; in experiment [2], > 60%. In addition, the GI50 in experiment [3] is ≤ 5 µM. At PI3Kα, the IC50 was < 10 nM.
On the same counts, the results for `CC(C)Cn1c(N2CCN(C(=O)C[C@H](C)O)CC2)nc2c(N3CCOCC3)nc(-c3cnc(N)nc3)nc21` [Example 82, (2S)-4-{4-[2-(2-Aminopyrimidin-5-yl)-9-isobutyl-6-morpholin-4-yl-9H-purin-8-yl]piperazin-1-yl}-4-oxobutan-2-ol] are > 90%, > 60%, ≤ 5 µM and 10 to 20 nM.
On the same counts, the results for `C[C@@H](O)CC(=O)N1CCN(c2nc3c(N4CCOCC4)nc(-c4cnc(N)nc4)nc3n2CC(F)(F)F)CC1` [Example 70, (2R)-4-{4-[2-(2-Aminopyrimidin-5-yl)-6-morpholin-4-yl-9-(2,2,2-trifluoroethyl)-9H-purin-8-yl]piperazin-1-yl}-4-oxobutan-2-ol] are > 90%, > 60%, ≤ 5 µM and 10 to 20 nM.
On the same counts, the results for `CNc1ncc(-c2nc(N3CCOCC3)c3nc(N4CCN(C(C)=O)[C@@H](C)C4)n(CC(F)(F)F)c3n2)cn1` [Example 107, 5-{8-[(3S)-4-Acetyl-3-methylpiperazin-1-yl]-6-morpholin-4-yl-9-(2,2,2-trifluoroethyl)-9H-purin-2-yl}-N-methylpyrimidin-2-amine] are > 90%, > 60%, ≤ 5 µM and < 10 nM.
Take `C[C@H](O)C(=O)N1CCN(c2nc3c(N4CCOCC4)nc(-c4cnc(N)nc4)nc3n2CC(F)(F)F)CC1` [Example 68, (2S)-1-{4-[2-(2-Aminopyrimidin-5-yl)-6-morpholin-4-yl-9-(2,2,2-trifluoroethyl)-9H-purin-8-yl]piperazin-1-yl}-1-oxopropan-2-ol]: the values for the inhibition at 10 mg/kg in experiment [1] and in experiment [2] were > 90% and > 60%, respectively. Besides, the GI50 in experiment [3] is ≤ 5 µM. In addition, the IC50 at PI3Kα was 10 to 20 nM.
Consider `CC(=O)N1CCN(c2nc3c(N4CCOCC4)nc(-c4cnc(N)nc4)nc3n2CC2CC2)C[C@@H]1C` [Example 96, 5-{8-[(3S)-4-Acetyl-3-methylpiperazin-1-yl]-9-(cyclopropylmethyl)-6-morpholin-4-yl-9H-purin-2-yl}pyrimidin-2-amine], for which the inhibition at 10 mg/kg was > 90% in experiment [1] and > 60% in experiment [2]. For the same compound, in experiment [3], the GI50 is ≤ 5 µM. For the same compound, at PI3Kα, the IC50 is < 10 nM.
On the same counts, the results for `CC(=O)N1CCN(c2nc3c(N4CCOCC4)nc(-c4cnc(N)nc4)nc3n2CC(F)(F)F)C[C@@H]1C` [Example 63, 5-{8-[(3S)-4-Acetyl-3-methylpiperazin-1-yl]-6-morpholin-4-yl-9-(2,2,2-trifluoroethyl)-9H-purin-2-yl}pyrimidin-2-amine] are > 90%, > 60%, ≤ 5 µM and < 10 nM.
Regarding `CC(C)Cn1c(N2CCN(C(=O)CO)CC2)nc2c(N3CCOC[C@@H]3C)nc(-c3cnc(N)nc3)nc21` [Example 130, 2-(4-{2-(2-Aminopyrimidin-5-yl)-9-isobutyl-6-[(3S)-3-methylmorpholin-4-yl]-9H-purin-8-yl}piperazin-1-yl)-2-oxoethanol], the inhibition at 10 mg/kg in experiment [1] is > 90%; in experiment [2] it was 30 to 60%. Moreover, the GI50 in experiment [3] is ≤ 5 µM. In addition, the IC50 on PI3Kα is 10 to 20 nM.
Turning to `C[C@@H]1CN(c2nc3c(N4CCOCC4)nc(-c4cnc(N)nc4)nc3n2CC2CC2)CCN1C(=O)[C@@H](C)O` [Example 114, (2R)-1-{(2R)-4-[2-(2-Aminopyrimidin-5-yl)-9-(cyclopropylmethyl)-6-morpholin-4-yl-9H-purin-8-yl]-2-methylpiperazin-1-yl}-1-oxopropan-2-ol], the inhibition at 10 mg/kg in experiment [1] is > 90%; in experiment [2], > 60%. The GI50 in experiment [3] is ≤ 5 µM. Further, the half-maximal inhibitory concentration (IC50) at PI3Kα is < 10 nM.
